“Also recorded” adds a separate entry of the source. Marks after values point to notes of the source that are not given here.
What was measured:
recombinant SK1 = recombinant SK1 (Homo sapiens, UniProt Q9NYA1); test: SK1 activity assay, cell-free (recombinant SK1 extract, radiolabelling); format: biochemical
Experimental: SK assay was performed using radiolabeling as previously described, in conditions favouring SK1 or SK2 activity as required.
The synthesised compounds were then screened for SK1 inhibition. Compounds SK-A to SK-F and SKI-II (commercial inhibitor of SK used as positive control with reported IC50 0.5 µM [14]) at 1 µM were incubated in the presence of recombinant SK1 extract (in excess), 1 µM of ATP, and exogenous 1 µM sphingosine for 1 h followed by measurement of SK1 activity.
Fig. 2 Inhibition of sphingosine kinase 1 in cell-free extract and in vitro. a 1 µM of compounds SK-A to SK-F and SKI-II (commercial inhibitor of SK used as a positive control) were incubated in the presence of recombinant SK1 extract (in excess), 1 µM of ATP, and 1 µM exogenous sphingosine for 1 h. b MDA-MB-231 cells were incubated with 1 µM of compounds SK-A to SK-F and SKI-II for 6 h. SK1 activity was measured as described in materials and methods. Columns, means of three independent experiments normalised to vehicle; bars, SEM. (ns, non-significant; *p < 0.05; **p < 0.01)
SK1 activity was determined in the presence of triton X-100 and SK2 activity was measured in the presence of high salt concentrations, conditions that favour SK1 and SK2, respectively. […] Km for SK1 was 6.97 ± 1.20 µM, Vmax 98 ± 4 µM/min/mg protein and Ki for SK-F 0.46 ± 0.1 µM. […] Some SK inhibitors such as SKI-II were previously shown to induce proteasomal degradation of SK1 [48, 49].

tumour SK1 = biological target: T1, tumour SK1 (Mus musculus, UniProt Q8CI15); test: SK1 activity in 4T1 allograft tumours; format: in vivo, BALB/c nude mice; conditions: 5 mg/kg each drug i.p. twice a week for 2 weeks
T1 construct: primary tumours were then processed for analysis of SK1 activity as described above; from tissue; host or cells: 4T1 breast tumour allografts from BALB/c nude mice
T1 sequence (Q8CI15 whole entry): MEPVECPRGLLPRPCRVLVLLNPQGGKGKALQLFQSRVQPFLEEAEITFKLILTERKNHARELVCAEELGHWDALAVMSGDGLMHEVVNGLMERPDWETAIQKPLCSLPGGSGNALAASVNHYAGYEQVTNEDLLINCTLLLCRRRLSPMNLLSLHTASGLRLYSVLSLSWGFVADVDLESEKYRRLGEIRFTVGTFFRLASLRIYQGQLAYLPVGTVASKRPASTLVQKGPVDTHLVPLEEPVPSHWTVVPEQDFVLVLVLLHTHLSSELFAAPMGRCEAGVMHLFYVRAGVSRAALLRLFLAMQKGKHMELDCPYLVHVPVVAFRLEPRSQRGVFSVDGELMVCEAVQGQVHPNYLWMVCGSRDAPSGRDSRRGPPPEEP
Experimental: (§1) Breast cancer allografts were established in 6–8-week-old BALB/c nude mice by injection of 10^6 4T1 cells into their mammary pad. Two weeks after implantation, mice were randomised into treatment groups (n = 6/group) and treated twice a week for 2 weeks with intraperitoneal injections of dimethyl sulfoxide (DMSO), 5 mg/kg DTX, 5 mg/kg SK-F, 5 mg/kg DTX + 5 mg/kg SK-F. One day after the last treatment, all mice were euthanized and blood was collected. Tumour long and short radii were measured using calipers and tumour volume (v) was calculated using the formula v = 4/3 πab^2 (a – long radius, b – short radius). Mice and individual organs were weighed and primary tumours were then processed for analysis of SK1 activity as described above. Full blood count and liver function test analysis was done in the Hammersmith hospital biochemical lab.
(§2) Fig. 5 Effect of compound SK-F on breast tumour growth and SK1 activity. […] Two weeks after implantation, mice were randomised into treatment groups (n = 6/group) and treated twice a week for 2 weeks with intraperitoneal injections of: DMSO, 5 mg/kg DTX, 5 mg/kg SK-F, 5 mg/kg DTX + 5 mg/kg SK-F. a Tumour volume in the different treatment groups of 4T1 breast cancer implanted in mouse mammary fat pad. b SK1 activity in tumours was measured using radiolabelling. […]

[1] = system: 4T1 breast cancer allografts; test: 4T1 breast cancer allograft, tumour volume; format: in vivo, BALB/c nude mice; conditions: 5 mg/kg each drug i.p. twice a week for 2 weeks; control 468 mm^3
Experimental: as §1, with “lab. […]” for “lab.”
as §2

[2] = Whole-body toxicity: body and organ weights, full blood count; format: in vivo, BALB/c nude mice; conditions: 5 mg/kg each drug i.p. twice a week for 2 weeks, 4T1 tumour-bearing mice
Experimental: as §1
Tumour-bearing mice were divided into four groups (n = 6) and injected with: DMSO, 5 mg/kg DTX, 5 mg/kg SK-F, 5 mg/kg DTX + 5 mg/kg SK-F. Two weeks after the tumour cells inoculation, we began intraperitoneal injections of drug preparations and continued these twice a week for two weeks. Based on our previous studies, we have chosen relatively smaller doses of SK-F and DTX in order to investigate their combined effect and potential chemosensitisation of breast tumours to taxane therapies. In the control group, tumours grew progressively and rapidly (Fig. 5a). […] Five mg/kg DTX has induced a significant reduction in tumour volume to 281 mm^3. The biggest reduction in tumour volume to 159 mm^3 was observed when DTX was combined with SK-F (Fig. 5a). […] We have further investigated the effects of the used treatments on mouse whole-body toxicity. DTX has reduced body and liver weight, while SK-F had no significant effect (Table 1). DTX has induced significant anaemia and leukopenia, while the effects of SK-F were very moderate. In all cases, the effects of combined therapy were similar to DTX alone (Table 1). Liver function test was performed as a surrogate marker for chemotherapy-induced liver damage (Fig. 6). […] The combination therapy had similar toxicity profile to DTX alone, while exerting higher antitumour efficacy (Fig. 5a).

SK1 in 4T1 cells = biological target: T2, SK1 in 4T1 cells (Mus musculus, UniProt Q8CI15); test: SK1 activity in 4T1 cells in vitro (Figure S10); format: cell-based, murine
T2 construct: endogenous in cells; host or cells: 4T1
T2 sequence (Q8CI15 whole entry): as above

SK1 mRNA = SK1 mRNA expression by qRT-PCR in MDA-MB-231 cells; format: cell-based, human; conditions: 1, 2, 5 and 10 µM, 24 h
Experimental: Isolation of total RNA from MDA-MB-231 cells was performed using the RNeasy Mini kit (Qiagen, Valencia, CA, USA) as per manufacturer’s instructions. RNA quantity and purity were measured using a NanoDrop ND-1000 Spectrophotometer (Thermo Fisher Scientific, Loughborough, UK). Reverse transcription was performed using precision nanoScript™ reverse transcription kit (PrimerDesign Ltd, Southampton, UK). qRT-PCR was done as already described. Ct values were exported and analysed using qbase software (Biogazelle NV, Zwijnaarde, Belgium).
Fig. 3 Effect of compounds SK-A to SK-F on SK1 mRNA levels. MDA-MB-231 cells were incubated with 1, 2, 5 and 10 µM of compounds SK-A to SK-F for 24 h. SK1 mRNA expression was measured by qRT-PCR. Columns, means of three independent experiments normalised to control; bars, SEM. (*p < 0.05; **p < 0.01)

Chain of recombinant SK1 (Q9NYA1 whole entry): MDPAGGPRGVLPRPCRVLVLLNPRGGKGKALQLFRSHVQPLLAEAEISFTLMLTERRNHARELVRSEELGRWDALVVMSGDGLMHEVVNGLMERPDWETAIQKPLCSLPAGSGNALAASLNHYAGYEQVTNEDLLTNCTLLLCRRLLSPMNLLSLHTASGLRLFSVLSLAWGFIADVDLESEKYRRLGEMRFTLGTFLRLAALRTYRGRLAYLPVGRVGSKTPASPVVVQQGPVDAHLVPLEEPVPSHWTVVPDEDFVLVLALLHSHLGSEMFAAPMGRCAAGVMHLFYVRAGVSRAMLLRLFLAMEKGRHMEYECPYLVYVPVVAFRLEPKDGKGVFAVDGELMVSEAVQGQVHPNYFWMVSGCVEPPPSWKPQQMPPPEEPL

CCCCCCCCc1ccc(NC(=O)c2ccccc2)cc1 [SK-F]
inhibition of SK1 activity in cell-free settings (recombinant SK1; 1 µM compound, recombinant SK1 extract in excess, 1 µM ATP, 1 µM sphingosine, 1 h): most potent inhibitor of SK1 activity; also recorded: statistically significant inhibition | IC50 (recombinant SK1; Figure S7, read-out: IC50 for purified enzyme (SK1 activity dose response)): 920 nM | mode of SK1 inhibition (recombinant SK1; Lineweaver-Burk plot, increasing sphingosine (Figure S8A)): competitive inhibitor | Ki (recombinant SK1; recombinant SK1, increasing sphingosine, triton X-100, Lineweaver-Burk): 460 ± 100 nM | tumour SK1 activity (tumour SK1): significantly reduced | tumour volume at the end of the study [1]: 371 mm^3 | Hb [2]: 90 ± 8^a % of control ± SEM | WCC [2]: 78 ± 7 % of control ± SEM | Weight of Body [2]: 91 ± 6^ns % of control ± SEM | Weight of Kidney [2]: 118.2 ± 3.6 % of control ± SEM | Weight of Liver [2]: 106.7 ± 5.5^a % of control ± SEM | Weight of Lungs [2]: 117.7 ± 5.6 % of control ± SEM | Weight of Spleen [2]: 111.2 ± 13.4^a % of control ± SEM | SK1 activity in 4T1 cells (SK1 in 4T1 cells): significant inhibition | effect on SK1 mRNA expression (SK1 mRNA): did not elicit any changes
